The kinase profiling compilation of Christmann-Franck et al. (2016)

Legend:
Experiment in all cases: KINOMEscan competition binding
Details in all cases: compound 10.0 µM
SRMS (human) = SRMS (human) (UniProt Q9H3Y6)
PLK4 (human) = PLK4 (human) (UniProt O00444)
LCK (human) = LCK (human) (UniProt P06239)
PDPK1 (human) = PDPK1 (human) (UniProt O15530)
MAP2K2 (human) = MAP2K2 (human) (UniProt P36507)
BRSK2 (human) = BRSK2 (human) (UniProt Q8IWQ3)
[1] = biological target: JAK1 JH1 catalytic (human) (UniProt P23458)
MAPK12 (human) = MAPK12 (human) (UniProt P53778)
RIPK1 (human) = RIPK1 (human) (UniProt Q13546)
MAPKAPK5 (human) = MAPKAPK5 (human) (UniProt Q8IW41)
CLK2 (human) = CLK2 (human) (UniProt P49760)
PAK3 (human) = PAK3 (human) (UniProt O75914)
MAPK3 (human) = MAPK3 (human) (UniProt P27361)
LYN (human) = LYN (human) (UniProt P07948)
RPS6KA1 KD2 (human) = RPS6KA1 KD2 (human) (UniProt Q15418)
MARK2 (human) = MARK2 (human) (UniProt Q7KZI7)
IKBKE (human) = IKBKE (human) (UniProt Q14164)
PDGFRB (human) = PDGFRB (human) (UniProt P09619)
AXL (human) = AXL (human) (UniProt P30530)
TEK (human) = TEK (human) (UniProt Q02763)
CDK9 (human) = CDK9 (human) (UniProt P50750)
CDK14 (human) = CDK14 (human) (UniProt O94921)
IKBKB (human) = IKBKB (human) (UniProt O14920)
MAP3K3 (human) = MAP3K3 (human) (UniProt Q99759)
CDK5 (human) = CDK5 (human) (UniProt Q00535)
CSNK1E (human) = CSNK1E (human) (UniProt P49674)
EPHA8 (human) = EPHA8 (human) (UniProt P29322)
NUAK2 (human) = NUAK2 (human) (UniProt Q9H093)
MYO3A (human) = MYO3A (human) (UniProt Q8NEV4)
MAP4K5 (human) = MAP4K5 (human) (UniProt Q9Y4K4)
RIPK2 (human) = RIPK2 (human) (UniProt O43353)
TNIK (human) = TNIK (human) (UniProt Q9UKE5)
STK25 (human) = STK25 (human) (UniProt O00506)
PRKD1 (human) = PRKD1 (human) (UniProt Q15139)
SLK (human) = SLK (human) (UniProt Q9H2G2)
TNNI3K (human) = TNNI3K (human) (UniProt Q59H18)
NEK5 (human) = NEK5 (human) (UniProt Q6P3R8)
PIM2 (human) = PIM2 (human) (UniProt Q9P1W9)
EPHA2 (human) = EPHA2 (human) (UniProt P29317)
RPS6KA2 KD2 (human) = RPS6KA2 KD2 (human) (UniProt Q15349)

IKBKE (human), sequence (Q14164 whole entry, looked up): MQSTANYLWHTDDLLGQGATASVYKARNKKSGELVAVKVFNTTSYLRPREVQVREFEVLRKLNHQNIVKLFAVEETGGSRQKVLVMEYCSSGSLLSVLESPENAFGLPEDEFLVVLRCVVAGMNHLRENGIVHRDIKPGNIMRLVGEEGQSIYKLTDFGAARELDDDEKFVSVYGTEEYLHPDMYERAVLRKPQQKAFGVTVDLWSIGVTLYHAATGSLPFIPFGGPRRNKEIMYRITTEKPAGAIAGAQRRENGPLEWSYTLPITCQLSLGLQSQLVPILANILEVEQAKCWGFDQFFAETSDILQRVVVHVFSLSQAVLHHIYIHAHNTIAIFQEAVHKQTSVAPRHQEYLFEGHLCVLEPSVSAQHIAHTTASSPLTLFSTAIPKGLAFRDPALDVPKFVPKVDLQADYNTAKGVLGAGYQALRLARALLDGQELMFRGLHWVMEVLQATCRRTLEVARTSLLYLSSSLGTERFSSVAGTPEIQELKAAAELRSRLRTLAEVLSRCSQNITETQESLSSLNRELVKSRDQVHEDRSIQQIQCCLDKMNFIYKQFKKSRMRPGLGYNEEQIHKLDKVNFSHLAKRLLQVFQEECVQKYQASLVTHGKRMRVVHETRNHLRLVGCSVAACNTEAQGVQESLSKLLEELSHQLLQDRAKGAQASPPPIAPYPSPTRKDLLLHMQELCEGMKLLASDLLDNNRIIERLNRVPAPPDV
RPS6KA1 KD2 (human), sequence (Q15418 whole entry, looked up): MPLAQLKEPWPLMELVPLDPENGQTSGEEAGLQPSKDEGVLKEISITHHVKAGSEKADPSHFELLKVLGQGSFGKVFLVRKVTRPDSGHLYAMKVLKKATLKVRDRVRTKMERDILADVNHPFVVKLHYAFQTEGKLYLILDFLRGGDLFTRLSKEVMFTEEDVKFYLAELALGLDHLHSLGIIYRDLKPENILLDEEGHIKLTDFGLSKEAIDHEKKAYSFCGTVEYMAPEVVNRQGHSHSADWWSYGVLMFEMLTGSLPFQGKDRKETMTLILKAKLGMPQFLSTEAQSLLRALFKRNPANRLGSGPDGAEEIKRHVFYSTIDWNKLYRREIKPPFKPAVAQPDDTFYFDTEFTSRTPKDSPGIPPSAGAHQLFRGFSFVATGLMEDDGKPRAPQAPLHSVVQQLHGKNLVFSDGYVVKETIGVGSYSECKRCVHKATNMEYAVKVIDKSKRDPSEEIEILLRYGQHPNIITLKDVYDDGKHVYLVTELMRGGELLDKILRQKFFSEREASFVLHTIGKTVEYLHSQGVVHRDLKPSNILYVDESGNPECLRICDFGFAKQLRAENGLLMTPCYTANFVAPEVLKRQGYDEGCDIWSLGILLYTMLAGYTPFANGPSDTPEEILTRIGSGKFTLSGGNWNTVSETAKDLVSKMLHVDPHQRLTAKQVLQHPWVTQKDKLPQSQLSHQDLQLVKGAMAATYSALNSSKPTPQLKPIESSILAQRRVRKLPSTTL
TEK (human), sequence (Q02763 whole entry, looked up): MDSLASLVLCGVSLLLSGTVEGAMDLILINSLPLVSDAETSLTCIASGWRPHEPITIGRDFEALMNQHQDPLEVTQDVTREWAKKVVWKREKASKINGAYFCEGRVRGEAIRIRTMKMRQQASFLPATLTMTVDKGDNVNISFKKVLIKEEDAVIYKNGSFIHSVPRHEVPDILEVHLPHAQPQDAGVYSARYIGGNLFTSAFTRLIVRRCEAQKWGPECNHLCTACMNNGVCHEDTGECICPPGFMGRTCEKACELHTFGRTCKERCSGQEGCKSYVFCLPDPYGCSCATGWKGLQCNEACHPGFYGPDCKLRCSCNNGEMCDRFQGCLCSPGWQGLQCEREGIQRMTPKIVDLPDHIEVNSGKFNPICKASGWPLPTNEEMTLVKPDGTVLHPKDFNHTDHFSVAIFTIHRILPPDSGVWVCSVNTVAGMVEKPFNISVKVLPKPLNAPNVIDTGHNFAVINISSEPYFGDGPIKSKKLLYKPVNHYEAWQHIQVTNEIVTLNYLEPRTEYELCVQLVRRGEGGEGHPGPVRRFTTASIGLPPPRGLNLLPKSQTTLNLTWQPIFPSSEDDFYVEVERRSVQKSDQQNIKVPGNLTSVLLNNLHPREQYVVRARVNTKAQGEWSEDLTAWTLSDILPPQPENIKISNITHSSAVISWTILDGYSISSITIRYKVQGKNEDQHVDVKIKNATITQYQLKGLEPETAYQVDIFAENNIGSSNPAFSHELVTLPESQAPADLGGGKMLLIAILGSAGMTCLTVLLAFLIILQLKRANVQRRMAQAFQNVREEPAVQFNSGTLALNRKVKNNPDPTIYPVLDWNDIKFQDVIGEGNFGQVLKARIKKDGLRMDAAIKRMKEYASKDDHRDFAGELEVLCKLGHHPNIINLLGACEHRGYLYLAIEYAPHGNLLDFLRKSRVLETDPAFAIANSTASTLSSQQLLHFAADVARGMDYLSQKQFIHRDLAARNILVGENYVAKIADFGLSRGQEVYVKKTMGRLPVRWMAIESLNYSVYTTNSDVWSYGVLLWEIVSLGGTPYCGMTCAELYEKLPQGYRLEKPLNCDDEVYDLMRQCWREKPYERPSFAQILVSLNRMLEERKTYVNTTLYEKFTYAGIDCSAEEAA
MAPK3 (human), sequence (P27361 whole entry, looked up): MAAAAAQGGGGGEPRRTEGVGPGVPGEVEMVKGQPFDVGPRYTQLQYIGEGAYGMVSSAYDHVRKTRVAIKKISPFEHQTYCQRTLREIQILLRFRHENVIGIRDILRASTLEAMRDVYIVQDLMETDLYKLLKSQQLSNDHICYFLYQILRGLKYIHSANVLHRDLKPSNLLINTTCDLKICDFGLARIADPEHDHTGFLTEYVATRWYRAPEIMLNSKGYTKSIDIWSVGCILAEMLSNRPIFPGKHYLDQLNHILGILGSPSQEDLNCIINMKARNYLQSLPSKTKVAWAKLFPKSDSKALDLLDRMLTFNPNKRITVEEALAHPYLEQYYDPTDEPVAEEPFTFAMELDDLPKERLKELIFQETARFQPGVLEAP
MYO3A (human), sequence (Q8NEV4 whole entry, looked up): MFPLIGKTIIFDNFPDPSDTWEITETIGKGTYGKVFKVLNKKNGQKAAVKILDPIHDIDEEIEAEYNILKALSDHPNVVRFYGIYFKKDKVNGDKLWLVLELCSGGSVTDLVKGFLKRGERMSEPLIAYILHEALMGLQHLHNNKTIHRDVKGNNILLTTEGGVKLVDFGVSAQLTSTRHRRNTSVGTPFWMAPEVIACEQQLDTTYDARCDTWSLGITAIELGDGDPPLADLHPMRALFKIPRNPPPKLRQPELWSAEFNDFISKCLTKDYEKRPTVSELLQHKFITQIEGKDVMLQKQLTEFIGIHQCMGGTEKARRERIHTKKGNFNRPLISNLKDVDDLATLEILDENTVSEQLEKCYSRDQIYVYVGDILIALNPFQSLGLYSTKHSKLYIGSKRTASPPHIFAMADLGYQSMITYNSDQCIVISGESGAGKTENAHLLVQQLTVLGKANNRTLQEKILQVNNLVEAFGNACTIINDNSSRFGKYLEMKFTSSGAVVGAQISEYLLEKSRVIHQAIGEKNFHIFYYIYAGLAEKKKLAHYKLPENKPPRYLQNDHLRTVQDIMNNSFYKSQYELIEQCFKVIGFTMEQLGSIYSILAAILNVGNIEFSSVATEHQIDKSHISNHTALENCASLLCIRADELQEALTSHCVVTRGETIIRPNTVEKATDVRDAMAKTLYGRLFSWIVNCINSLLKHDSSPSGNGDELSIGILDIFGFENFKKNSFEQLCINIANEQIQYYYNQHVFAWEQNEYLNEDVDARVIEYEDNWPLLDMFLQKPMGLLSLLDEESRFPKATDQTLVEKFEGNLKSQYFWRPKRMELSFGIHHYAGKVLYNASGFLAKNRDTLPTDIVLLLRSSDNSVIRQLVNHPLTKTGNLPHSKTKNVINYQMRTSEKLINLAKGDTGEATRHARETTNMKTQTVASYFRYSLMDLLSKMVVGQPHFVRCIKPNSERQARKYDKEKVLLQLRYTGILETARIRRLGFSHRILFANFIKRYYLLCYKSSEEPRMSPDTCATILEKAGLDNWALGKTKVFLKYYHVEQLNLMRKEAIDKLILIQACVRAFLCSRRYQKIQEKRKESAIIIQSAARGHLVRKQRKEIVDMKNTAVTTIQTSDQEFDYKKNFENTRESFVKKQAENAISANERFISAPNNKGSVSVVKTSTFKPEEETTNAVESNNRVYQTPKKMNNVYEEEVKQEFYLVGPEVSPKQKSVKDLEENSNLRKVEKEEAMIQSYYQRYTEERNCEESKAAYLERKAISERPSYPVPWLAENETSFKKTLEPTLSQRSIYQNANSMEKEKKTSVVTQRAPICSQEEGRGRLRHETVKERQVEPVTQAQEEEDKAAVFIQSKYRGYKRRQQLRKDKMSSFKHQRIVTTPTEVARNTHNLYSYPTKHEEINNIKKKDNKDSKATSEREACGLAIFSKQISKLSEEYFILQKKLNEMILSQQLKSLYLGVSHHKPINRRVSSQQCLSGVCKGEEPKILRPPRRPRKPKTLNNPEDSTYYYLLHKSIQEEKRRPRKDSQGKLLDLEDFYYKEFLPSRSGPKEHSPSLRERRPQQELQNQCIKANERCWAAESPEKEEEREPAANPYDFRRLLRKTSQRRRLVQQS
CDK14 (human), sequence (O94921 whole entry, looked up): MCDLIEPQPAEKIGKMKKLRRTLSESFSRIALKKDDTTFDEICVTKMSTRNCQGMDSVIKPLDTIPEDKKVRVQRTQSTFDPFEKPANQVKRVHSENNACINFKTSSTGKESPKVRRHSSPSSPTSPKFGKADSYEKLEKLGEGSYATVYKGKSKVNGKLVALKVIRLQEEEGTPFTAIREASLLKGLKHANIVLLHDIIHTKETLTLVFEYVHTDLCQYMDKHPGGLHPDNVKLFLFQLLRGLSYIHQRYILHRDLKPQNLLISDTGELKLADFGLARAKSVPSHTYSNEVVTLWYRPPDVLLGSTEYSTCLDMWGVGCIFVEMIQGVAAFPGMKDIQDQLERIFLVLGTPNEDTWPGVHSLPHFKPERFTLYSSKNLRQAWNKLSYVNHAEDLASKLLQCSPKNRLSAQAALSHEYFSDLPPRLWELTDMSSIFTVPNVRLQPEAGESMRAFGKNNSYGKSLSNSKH

| SMILES | kinase still bound, per cent of control (SRMS (human)) | kinase still bound, per cent of control (PLK4 (human)) | kinase still bound, per cent of control (LCK (human)) | kinase still bound, per cent of control (PDPK1 (human)) | kinase still bound, per cent of control (MAP2K2 (human)) | kinase still bound, per cent of control (BRSK2 (human)) | kinase still bound, per cent of control [1] | kinase still bound, per cent of control (MAPK12 (human)) | kinase still bound, per cent of control (RIPK1 (human)) | kinase still bound, per cent of control (MAPKAPK5 (human)) | kinase still bound, per cent of control (CLK2 (human)) | kinase still bound, per cent of control (PAK3 (human)) | kinase still bound, per cent of control (MAPK3 (human)) | kinase still bound, per cent of control (LYN (human)) | kinase still bound, per cent of control (RPS6KA1 KD2 (human)) | kinase still bound, per cent of control (IKBKE (human)) | kinase still bound, per cent of control (PDGFRB (human)) | kinase still bound, per cent of control (AXL (human)) | kinase still bound, per cent of control (TEK (human)) | kinase still bound, per cent of control (CDK9 (human)) | also measured |
| --- | --- | --- | --- | --- | --- | --- | --- | --- | --- | --- | --- | --- | --- | --- | --- | --- | --- | --- | --- | --- | --- |
| Cc1ccc2nc(NCCN)c3ncc(C)n3c2c1 | 90% | 90% | 98% | 100% | 77% | 100% | 100% | 100% | 100% | 100% | 54% | 62% | 97% | 100% | 46% | 100% | 57% | 100% | 100% | 35% | kinase still bound, per cent of control (MARK2 (human)): 100%; kinase still bound, per cent of control (CDK14 (human)): 100%; kinase still bound, per cent of control (IKBKB (human)): 0.55%; kinase still bound, per cent of control (MAP3K3 (human)): 100%; kinase still bound, per cent of control (CDK5 (human)): 100%; kinase still bound, per cent of control (CSNK1E (human)): 58%; kinase still bound, per cent of control (EPHA8 (human)): 100%; kinase still bound, per cent of control (NUAK2 (human)): 100%; kinase still bound, per cent of control (MYO3A (human)): 100%; kinase still bound, per cent of control (MAP4K5 (human)): 96%; kinase still bound, per cent of control (RIPK2 (human)): 100%; kinase still bound, per cent of control (TNIK (human)): 100%; kinase still bound, per cent of control (STK25 (human)): 79%; kinase still bound, per cent of control (PRKD1 (human)): 47%; kinase still bound, per cent of control (SLK (human)): 100%; kinase still bound, per cent of control (TNNI3K (human)): 100%; kinase still bound, per cent of control (NEK5 (human)): 100%; kinase still bound, per cent of control (PIM2 (human)): 100%; kinase still bound, per cent of control (EPHA2 (human)): 93%; kinase still bound, per cent of control (RPS6KA2 KD2 (human)): 97% |
| CCC(=O)N1CCN(c2ccc(-n3c(=O)ccc4cnc5ccc(-c6cnc7ccccc7c6)cc5c43)cc2C(F)(F)F)CC1 | 92% | 100% | 77% | 100% | 100% | 76% | 82% | 71% | 1.9% | 100% | 65% | 100% | 91% | 79% | 100% | 87% | 24% | 46% | 19% | 94% | kinase still bound, per cent of control (CDK14 (human)): 99%; kinase still bound, per cent of control (IKBKB (human)): 61%; kinase still bound, per cent of control (MAP3K3 (human)): 75%; kinase still bound, per cent of control (CDK5 (human)): 100%; kinase still bound, per cent of control (CSNK1E (human)): 59%; kinase still bound, per cent of control (EPHA8 (human)): 71%; kinase still bound, per cent of control (NUAK2 (human)): 100%; kinase still bound, per cent of control (MYO3A (human)): 100%; kinase still bound, per cent of control (MAP4K5 (human)): 8.1%; kinase still bound, per cent of control (RIPK2 (human)): 44%; kinase still bound, per cent of control (TNIK (human)): 39%; kinase still bound, per cent of control (STK25 (human)): 84%; kinase still bound, per cent of control (PRKD1 (human)): 99%; kinase still bound, per cent of control (SLK (human)): 94%; kinase still bound, per cent of control (TNNI3K (human)): 66%; kinase still bound, per cent of control (NEK5 (human)): 5.8%; kinase still bound, per cent of control (PIM2 (human)): 62%; kinase still bound, per cent of control (EPHA2 (human)): 59%; kinase still bound, per cent of control (RPS6KA2 KD2 (human)): 85% |
| CC[C@@H]1C(=O)N(C)c2cnc(Nc3ccc(C(=O)NC4CCN(C)CC4)cc3OC)nc2N1C1CCCC1 | 100% | 100% | 100% | 100% | 100% | 100% | 100% | 100% | 100% | 100% | 5.4% | 100% | 100% | 100% | 21% | 100% | 100% | 100% | 100% | 100% | kinase still bound, per cent of control (MARK2 (human)): 100%; kinase still bound, per cent of control (CDK14 (human)): 100%; kinase still bound, per cent of control (IKBKB (human)): 100%; kinase still bound, per cent of control (MAP3K3 (human)): 100%; kinase still bound, per cent of control (CDK5 (human)): 100%; kinase still bound, per cent of control (CSNK1E (human)): 100%; kinase still bound, per cent of control (EPHA8 (human)): 100%; kinase still bound, per cent of control (NUAK2 (human)): 100%; kinase still bound, per cent of control (MYO3A (human)): 100%; kinase still bound, per cent of control (RIPK2 (human)): 100%; kinase still bound, per cent of control (TNIK (human)): 100%; kinase still bound, per cent of control (STK25 (human)): 100%; kinase still bound, per cent of control (PRKD1 (human)): 7%; kinase still bound, per cent of control (SLK (human)): 3%; kinase still bound, per cent of control (TNNI3K (human)): 100%; kinase still bound, per cent of control (NEK5 (human)): 100%; kinase still bound, per cent of control (PIM2 (human)): 100%; kinase still bound, per cent of control (EPHA2 (human)): 100%; kinase still bound, per cent of control (RPS6KA2 KD2 (human)): 7.2% |
